Measurements from patent US9556165B2 (priority 2012, dated 2017).
Converted amounts (≈) assume the structure as drawn. Where two headings read alike, the source gives them in different places.

Legend:
Assay type in all cases: cell-based
S. pneumoniae 113 = assay: MIC determination, broth microdilution (CLSI); conditions: Streptococcus pneumoniae, 113, strain 13; broth microdilution; read-out: MIC strain 13 (S. pneumoniae 113)
[1] = tested on: P. aeruginosa 2297-con (AmpC derepressed); assay: MIC determination, broth microdilution (CLSI); conditions: Pseudomonas aeruginosa, read-out: strain 8 MIC, strain 8
E. cloacae 34654 = assay: MIC determination, broth microdilution (CLSI); conditions: Enterobacter cloacae, 34654, strain 3
H. influenzae ATCC 49247 = assay: MIC determination, broth microdilution (CLSI); conditions: Haemophilus influenzae, ATCC49247, strain 12; broth microdilution; read-out: MIC strain 12 (H. influenzae ATCC 49247)
K. pneumoniae 60 = assay: MIC determination, broth microdilution (CLSI); conditions: Klebsiella pneumoniae, 60, strain 2
S. aureus 133 = assay: MIC determination, broth microdilution (CLSI)
B. fragilis 6688 = assay: MIC determination, broth microdilution (CLSI); conditions: Bacteroides fragilis, 6688, strain 15; broth microdilution; read-out: MIC strain 15 (B. fragilis 6688)
A. baumannii ATCC15308 = assay: MIC determination, broth microdilution (CLSI); conditions: Acinetobacter baumannii, ATCC15308, strain 9
P. aeruginosa PAO1 = assay: MIC determination, broth microdilution (CLSI); conditions: Pseudomonas aeruginosa, PAO1, strain 6
Bacteria = assay: MIC determination in combination with β-lactamase inhibitors (constant 4 μg/mL)
E. coli J62 = assay: MIC determination, broth microdilution (CLSI); conditions: Escherichia coli, J62, strain 17; broth microdilution; read-out: MIC strain 17 (E. coli J62)
E. coli ATCC25922 = assay: MIC determination, broth microdilution (CLSI); conditions: Escherichia coli, ATCC25922, strain 1
C. freundii K21/3034 = assay: MIC determination, broth microdilution (CLSI); conditions: Citrobacter freundii, K21/3034, strain 4
M. morganii 126/3048 = assay: MIC determination, broth microdilution (CLSI); conditions: Morganella morganii, 126/3048, strain 5
[2] = tested on: P. aeruginosa 2297 (AmpC wt); assay: MIC determination, broth microdilution (CLSI); conditions: Pseudomonas aeruginosa, strain 7
E. coli J62-TEM-3 = assay: MIC determination, broth microdilution (CLSI); conditions: Escherichia coli, J62TEM3, read-out: MIC strain 18 (E. coli J62-TEM-3), strain 18; broth microdilution
[3] = Staphylococcus aureus, 133, strain 11, read-out: strain 11 MIC
[4] = Staphylococcus aureus, 133, strain 14, broth microdilution, read-out: MIC strain 14 (S. aureus 133)

Structure (SMILES)	MIC (S. pneumoniae 113)	MIC [1]	MIC (E. cloacae 34654)	MIC (H. influenzae ATCC 49247)	MIC (K. pneumoniae 60)	MIC (S. aureus 133; [3])	MIC (S. aureus 133; [4])	MIC (B. fragilis 6688)	MIC (A. baumannii ATCC15308)	MIC (P. aeruginosa PAO1)	MIC strain 19 (E. coli J62-TEM-3 + 4 μg/mL clavulanic acid) (Bacteria)	MIC strain 20 (E. coli J62-TEM-3 + 4 μg/mL sulbactam) (Bacteria)	MIC strain 21 (E. coli J62-TEM-3 + 4 μg/mL tazobactam) (Bacteria)	MIC (E. coli J62)	MIC (E. coli ATCC25922)	MIC (C. freundii K21/3034)	MIC (M. morganii 126/3048)	MIC [2]	MIC (E. coli J62-TEM-3)
C[C@@H]1[C@H](NC(=O)/C(=N\OCCCOc2ccc(C(=N)N)cc2)c2csc(N)n2)C(=O)N1S(=O)(=O)O [Example 48, (2R,3S)-3-{[(2Z)-2-(2-Amino-1,3-thiazol-4-yl)-2-{[3-(4-carbamimidoylphenoxy)propoxy]imino}acetyl]amino}-2-methyl-4-oxoazetidine-1-sulfonic acid]	1 µg/mL (≈ 1.9 µM)	32 µg/mL (≈ 60.9 µM)	4 µg/mL (≈ 7.61 µM)	0.5 µg/mL (≈ 0.951 µM)	4 µg/mL (≈ 7.61 µM)	0.5 µg/mL (≈ 0.951 µM)	4 µg/mL (≈ 7.61 µM)	16 µg/mL (≈ 30.4 µM)	8 µg/mL (≈ 15.2 µM)	8 µg/mL (≈ 15.2 µM)	2 µg/mL	2 µg/mL	2 µg/mL	2 µg/mL (≈ 3.81 µM)	2 µg/mL (≈ 3.81 µM)	2 µg/mL (≈ 3.81 µM)	1 µg/mL (≈ 1.9 µM)	16 µg/mL (≈ 30.4 µM)	–
C[C@H]1[C@H](NC(=O)/C(=N\OCCOc2ccc(C(=N)N)cc2Br)c2csc(N)n2)C(=O)N1S(=O)(=O)O [Example 49, (2S,3S)-3-{[(2Z)-2-(2-Amino-1,3-thiazol-4-yl)-2-{[2-(2-bromo-4-carbamimidoyl-phenoxy)ethoxy]imino}acetyl]amino}-2-methyl-4-oxoazetidine-1-sulfonic acid]	0.5 µg/mL (≈ 0.847 µM)	32 µg/mL (≈ 54.2 µM)	2 µg/mL (≈ 3.39 µM)	0.5 µg/mL (≈ 0.847 µM)	2 µg/mL (≈ 3.39 µM)	0.125 µg/mL (≈ 0.212 µM)	16 µg/mL (≈ 27.1 µM)	16 µg/mL (≈ 27.1 µM)	4 µg/mL (≈ 6.77 µM)	8 µg/mL (≈ 13.5 µM)	2 µg/mL	2 µg/mL	2 µg/mL	2 µg/mL (≈ 3.39 µM)	1 µg/mL (≈ 1.69 µM)	1 µg/mL (≈ 1.69 µM)	2 µg/mL (≈ 3.39 µM)	16 µg/mL (≈ 27.1 µM)	–
C[C@H]1[C@H](NC(=O)/C(=N\OCCOc2ccc(NC(=N)N)cc2)c2csc(N)n2)C(=O)N1S(=O)(=O)O [Example 50, (2S,3S)-3-{[(2Z)-2-(2-Amino-1,3-thiazol-4-yl)-2-{[2-(4-carbamimidamidophenoxy)ethoxy]imino}acetyl]amino}-2-methyl-4-oxoazetidine-1-sulfonic acid]	1 µg/mL (≈ 1.9 µM)	32 µg/mL (≈ 60.8 µM)	1 µg/mL (≈ 1.9 µM)	0.25 µg/mL (≈ 0.475 µM)	0.5 µg/mL (≈ 0.95 µM)	0.125 µg/mL (≈ 0.237 µM)	8 µg/mL (≈ 15.2 µM)	16 µg/mL (≈ 30.4 µM)	2 µg/mL (≈ 3.8 µM)	8 µg/mL (≈ 15.2 µM)	1 µg/mL	1 µg/mL	1 µg/mL	1 µg/mL (≈ 1.9 µM)	0.5 µg/mL (≈ 0.95 µM)	1 µg/mL (≈ 1.9 µM)	0.5 µg/mL (≈ 0.95 µM)	16 µg/mL (≈ 30.4 µM)	–
C[C@H]1[C@H](NC(=O)/C(=N\OCCCOc2ccc(NC(=N)N)cc2)c2csc(N)n2)C(=O)N1S(=O)(=O)O [Example 51, (2S,3S)-3-{[(2Z)-2-(2-Amino-1,3-thiazol-4-yl)-2-{[3-(4-carbamimidamidophenoxy)propoxy]imino}acetyl]amino}-2-methyl-4-oxoazetidine-1-sulfonic acid]	1 µg/mL (≈ 1.85 µM)	32 µg/mL (≈ 59.2 µM)	2 µg/mL (≈ 3.7 µM)	0.5 µg/mL (≈ 0.925 µM)	4 µg/mL (≈ 7.4 µM)	0.5 µg/mL (≈ 0.925 µM)	8 µg/mL (≈ 14.8 µM)	16 µg/mL (≈ 29.6 µM)	4 µg/mL (≈ 7.4 µM)	16 µg/mL (≈ 29.6 µM)	4 µg/mL	4 µg/mL	4 µg/mL	4 µg/mL (≈ 7.4 µM)	2 µg/mL (≈ 3.7 µM)	2 µg/mL (≈ 3.7 µM)	2 µg/mL (≈ 3.7 µM)	16 µg/mL (≈ 29.6 µM)	–
C[C@H]1[C@H](NC(=O)/C(=N\OCCOc2ccc(C(=N)N)cc2)c2nsc(N)n2)C(=O)N1S(=O)(=O)O [Example 52]	16 µg/mL (≈ 31.2 µM)	16 µg/mL (≈ 31.2 µM)	1 µg/mL (≈ 1.95 µM)	8 µg/mL (≈ 15.6 µM)	0.5 µg/mL (≈ 0.976 µM)	2 µg/mL (≈ 3.9 µM)	8 µg/mL (≈ 15.6 µM)	32 µg/mL (≈ 62.4 µM)	1 µg/mL (≈ 1.95 µM)	4 µg/mL (≈ 7.8 µM)	2 µg/mL	2 µg/mL	2 µg/mL	2 µg/mL (≈ 3.9 µM)	1 µg/mL (≈ 1.95 µM)	0.25 µg/mL (≈ 0.488 µM)	1 µg/mL (≈ 1.95 µM)	4 µg/mL (≈ 7.8 µM)	–
C[C@H]1[C@H](NC(=O)/C(=N\OCc2ccc(C(=N)N)cc2)c2csc(N)n2)C(=O)N1S(=O)(=O)O [Example 55, (2S,3S)-3-{[(2Z)-2-(2-Amino-1,3-thiazol-4-yl)-2-{[(4-carbamimidoylbenzyl)oxy]imino}-acetyl]amino}-2-methyl-4-oxoazetidine-1-sulfonic acid]	0.125 µg/mL (≈ 0.26 µM)	32 µg/mL (≈ 66.5 µM)	0.5 µg/mL (≈ 1.04 µM)	1 µg/mL (≈ 2.08 µM)	1 µg/mL (≈ 2.08 µM)	0.25 µg/mL (≈ 0.519 µM)	8 µg/mL (≈ 16.6 µM)	8 µg/mL (≈ 16.6 µM)	4 µg/mL (≈ 8.31 µM)	16 µg/mL (≈ 33.2 µM)	1 µg/mL	0.5 µg/mL	0.5 µg/mL	1 µg/mL (≈ 2.08 µM)	0.5 µg/mL (≈ 1.04 µM)	0.25 µg/mL (≈ 0.519 µM)	0.25 µg/mL (≈ 0.519 µM)	–	–
C[C@H]1[C@H](NC(=O)/C(=N\OCCOc2ccc(C(=N)N)cc2CO)c2csc(N)n2)C(=O)N1S(=O)(=O)O [Example 59, (2S,3S)-3-{[(2Z)-2-(2-Amino-1,3-thiazol-4-yl)-2-({2-[4-carbamimidoyl-2-(hydroxymethyl)phenoxy]ethoxy}imino)acetyl]amino}-2-methyl-4-oxoazetidine-1-sulfonic acid]	0.5 µg/mL (≈ 0.923 µM)	32 µg/mL (≈ 59.1 µM)	1 µg/mL (≈ 1.85 µM)	1 µg/mL (≈ 1.85 µM)	1 µg/mL (≈ 1.85 µM)	0.25 µg/mL (≈ 0.462 µM)	32 µg/mL (≈ 59.1 µM)	16 µg/mL (≈ 29.5 µM)	1 µg/mL (≈ 1.85 µM)	16 µg/mL (≈ 29.5 µM)	2 µg/mL	2 µg/mL	2 µg/mL	2 µg/mL (≈ 3.69 µM)	1 µg/mL (≈ 1.85 µM)	0.5 µg/mL (≈ 0.923 µM)	1 µg/mL (≈ 1.85 µM)	16 µg/mL (≈ 29.5 µM)	32 µg/mL (≈ 59.1 µM)
C[C@H]1[C@H](NC(=O)/C(=N\OCCOc2ccc(C(=N)N)cc2COC=O)c2csc(N)n2)C(=O)N1S(=O)(=O)O [Example 60, (2S,3S)-3-({(2Z)-2-(2-Amino-1,3-thiazol-4-yl)-2-[(2-{4-carbamimidoyl-2-[(formyloxy)-methyl]phenoxy}ethoxy)imino]acetyl}amino)-2-methyl-4-oxoazetidine-1-sulfonic acid]	1 µg/mL (≈ 1.76 µM)	32 µg/mL (≈ 56.2 µM)	2 µg/mL (≈ 3.51 µM)	1 µg/mL (≈ 1.76 µM)	1 µg/mL (≈ 1.76 µM)	0.25 µg/mL (≈ 0.439 µM)	16 µg/mL (≈ 28.1 µM)	16 µg/mL (≈ 28.1 µM)	4 µg/mL (≈ 7.02 µM)	16 µg/mL (≈ 28.1 µM)	2 µg/mL	2 µg/mL	2 µg/mL	2 µg/mL (≈ 3.51 µM)	1 µg/mL (≈ 1.76 µM)	1 µg/mL (≈ 1.76 µM)	0.5 µg/mL (≈ 0.878 µM)	16 µg/mL (≈ 28.1 µM)	32 µg/mL (≈ 56.2 µM)
C[C@H]1[C@H](NC(=O)/C(=N\OCCOc2ccc(CC(=N)N)cc2)c2csc(N)n2)C(=O)N1S(=O)(=O)O [Example 62, (2S,3S)-3-{[(2Z)-2-({2-[4-(2-Amino-2-iminoethyl)phenoxy]ethoxy}imino)-2-(2-amino-1,3-thiazol-4-yl)acetyl]amino}-2-methyl-4-oxoazetidine-1-sulfonic acid]	1 µg/mL (≈ 1.9 µM)	32 µg/mL (≈ 60.9 µM)	1 µg/mL (≈ 1.9 µM)	0.25 µg/mL (≈ 0.476 µM)	0.5 µg/mL (≈ 0.951 µM)	0.125 µg/mL (≈ 0.238 µM)	8 µg/mL (≈ 15.2 µM)	16 µg/mL (≈ 30.4 µM)	2 µg/mL (≈ 3.81 µM)	4 µg/mL (≈ 7.61 µM)	1 µg/mL	1 µg/mL	1 µg/mL	1 µg/mL (≈ 1.9 µM)	1 µg/mL (≈ 1.9 µM)	0.5 µg/mL (≈ 0.951 µM)	0.125 µg/mL (≈ 0.238 µM)	8 µg/mL (≈ 15.2 µM)	16 µg/mL (≈ 30.4 µM)
